From patent US20150224085A1, “METHOD OF ADMINISTERING A 5,5-FUSED HETEROARYLENE HEPATITIS C VIRUS INHIBITOR FOR TREATING OF PREVENTING HEPATITIS C VIRUS INFECTION” (priority 2012, published 2015)

Assays:
[1] = 28-day toxicity study in mice
Procedure: (§1) Safety margins were calculated based upon proposed human doses in the first-in-human trial and human equivalent dose (HED) calculations derived from the two 28-day toxicology studies in mice and monkeys. This approach is consistent with the United States Food and Drug Administration Guidance for Industry entitled “Estimating the Maximum Safe Starting Dose in Initial Clinical Trials for Therapeutics in Adult Healthy Volunteers,” July 2005.

[2] = 28-day toxicity study in cynomolgus monkeys
Procedure: as §1

[3] = clinical; details: human, in vivo
Procedure: (§2) The phase I/IIa study was designed to evaluate safety and tolerability, pharmacokinetics (PK), food effect, and antiviral activity with regard to the Compound. The key safety parameters that were evaluated in the trial include adverse events (AEs), physical examination, vital signs, 12-lead electrocardiogram (ECG), and standard safety laboratory tests. The key antiviral activity parameters that were evaluated in the trial include changes in plasma HCV RNA and emergence of resistance mutations. The key pharmacokinetic parameters that were evaluated in the trial include plasma and urine concentrations of the Compound.
(§3) In the phase I/IIa study, plasma HCV RNA was quantitated using a validated commercial assay (COBAS® TAQMAN®) with a lower limit of quantitation of 25 IU/mL. HCV RNA genotyping was performed at Baseline using the Versant HCV Genotype Assay (LiPA) 2.0.
(§4) In Group B, the Compound was evaluated in an open-label, single day study in 18 subjects with chronic HCV Genotype 1, 2, or 3 infection. […] For all cohorts, dosing was under fasted in this study.

[4] = test system: HCV Genotype 1b; assay: Phase I/IIa Group B: plasma HCV RNA reduction after single dose, Genotype 1b; type: in vivo, hepatitis C virus; details: 1 subject
Procedure: as §2, §3, §4

[5] = in vivo
Procedure: as §2
The Compound was first evaluated in a randomized, double-blind, placebo-controlled, sequential dose escalation study in 48 healthy subjects. For each cohort, there were 6 subjects to receive the Compound and 2 subjects to receive placebo. Except cohort 5a, the Compound was administered under fasted conditions.
as §4

[6] = clinical; details: human, in vivo; remark: listed apart in the source
Procedure: as §2, §3
(§5) In Group C, the Compound was evaluated in a randomized, double-blind, placebo-controlled, parallel dosing study in 34 treatment-naive, genotype 1 HCV-infected subjects.
(§6) In Group D, the Compound was evaluated in an randomized, double-blind, placebo-controlled, parallel dosing study in 30 treatment-naive, genotypes 2, 3, and 4 HCV-infected subjects.
(§7) For all cohorts, dosing was under fasted in this study.

[7] = test system: HCV Genotype 1a; assay: Phase I/IIa Group C: HCV RNA reduction, 3-day dosing, Genotype 1a; type: in vivo, hepatitis C virus
Procedure: as §2, §3, §5, §7

[8] = test system: HCV Genotype 3; assay: Phase I/IIa Group D: HCV RNA reduction, 3-day dosing, Genotype 3; type: in vivo, hepatitis C virus; details: n = 4
Procedure: as §2, §3, §6, §7

[9] = test system: HCV Genotype 1, 2, and 3; assay: Phase I/IIa Group B: antiviral activity of single dose across genotypes; type: in vivo, hepatitis C virus; details: Genotype 1, 2, and 3 HCV-infected subjects
Procedure: as §2, §3, §4

[10] = 28 days, doses up to 250 mg/kg/day
[11] = proposed human dose 1 mg/subject/day (0.02 mg/kg/day)
[12] = proposed human dose 5 mg/subject/day (0.08 mg/kg/day)
[13] = proposed human dose 10 mg/subject/day (0.17 mg/kg/day)
[14] = proposed human dose 25 mg/subject/day (0.42 mg/kg/day)
[15] = proposed human dose 50 mg/subject/day (0.83 mg/kg/day)

COC(=O)N[C@H](C(=O)N1CCC[C@H]1c1nc2cc(-c3csc4c(-c5ccc(-c6cnc([C@@H]7CCCN7C(=O)[C@H](NC(=O)OC)c7ccccc7)[nH]6)cc5)csc34)ccc2[nH]1)C(C)C [the Compound, [(S)-1-((S)-2-{6-[6-(4-{(S)-2-[1-((R)-2-methoxycarbonylamino-2-phenyl-acetyl)-pyrrolidin-2-yl]-3H-imidazol-4-yl}-phenyl)-thieno[3,2-b]thiophen-3-yl]-1H-benzoimidazol-2-yl}-pyrrolidine-1-carbonyl)-2-methyl-propyl]-carbamic acid methyl ester]
no observable effect level (NOEL) ([1]; 28-day mouse study): 150 mg/kg/day
toxicological target [1, 10]: did not define any toxicological target
NOAEL at 28 days ([1]; both, mouse, in vivo): 250 mg/kg/day
liver histology ([1]; males and females, 250 mg/kg/day): minimal to mild diffuse hypertrophy of centrilobular hepatocytes
increase in plasma levels with dose ([1]; mouse, in vivo, 150 mg/kg/day): little or no increase
Mean ALT values at Day 29 ([1]; mouse, in vivo, 250 mg/kg/day): 88.4 U/L
Margin of Safety, Mouse [1, 11]: 610 fold
Margin of Safety, Mouse [1, 12]: 153 fold
Margin of Safety, Mouse [1, 13]: 72 fold
Margin of Safety, Mouse [1, 14]: 29 fold
Margin of Safety, Mouse [1, 15]: 15 fold
no observable effect level (NOEL) ([2]; 28-day monkey study): 250 mg/kg/day
toxicological target [2, 10]: did not define any toxicological target
increase in plasma levels with dose ([2]; cynomolgus monkey, in vivo): little or no increase
Margin of Safety, Monkey [2, 11]: 807 fold
Margin of Safety, Monkey [2, 12]: 204 fold
Margin of Safety, Monkey [2, 13]: 95 fold
Margin of Safety, Monkey [2, 14]: 38 fold
Margin of Safety, Monkey [2, 15]: 19 fold
exposure versus dose [3]: Dose proportional exposure
AUC(0-inf) ([3]; 1 mg): 8 ± 5.8 ng·h/mL
Cmax ([3]; 1 mg): 0.5 ± 0.4 ng/mL
Tmax ([3]; 1 mg): 4 h
half-life ([3]; 1 mg): 13 ± 6 h
AUC(0-inf) ([3]; 5 mg): 39 ± 14.5 ng·h/mL
Cmax ([3]; 5 mg): 2.2 ± 1.1 ng/mL
Tmax ([3]; 5 mg): 4 h
half-life ([3]; 5 mg): 13 ± 0.5 h
AUC(0-inf) ([3]; 10 mg): 188 ± 3.7 ng·h/mL
Cmax ([3]; 10 mg): 9 ± 1.2 ng/mL
Tmax ([3]; 10 mg): 3 h
half-life ([3]; 10 mg): 24 ± 5.9 h
AUC(0-inf) ([3]; 25 mg): 216 ± 80.6 ng·h/mL
Cmax ([3]; 25 mg): 13.8 ± 3.8 ng/mL
Tmax ([3]; 25 mg): 3.5 h
half-life ([3]; 25 mg): 18 ± 3.8 h
AUC(0-inf) ([3]; 50 mg): 576 ± 299 ng·h/mL
Cmax ([3]; 50 mg): 35.2 ± 16.5 ng/mL
Tmax ([3]; 50 mg): 4 h
half-life ([3]; 50 mg): 22 ± 1.8 h
AUC(0-inf) ([3]; 100 mg): 1340 ± 282 ng·h/mL
Cmax ([3]; 100 mg): 95 ± 20.4 ng/mL
Tmax ([3]; 100 mg): 4 h
half-life ([3]; 100 mg): 19 ± 2 h
Maximum Viral Load Reduction after Single Dose ([4]; 1 mg single dose): 3.1^2 log10 IU/mL
Maximum Viral Load Reduction after Single Dose ([4]; 10 mg single dose): 3.7^2 log10 IU/mL
Maximum Viral Load Reduction after Single Dose ([4]; 50 mg single dose): 3.2^2 log10 IU/mL
Maximum Viral Load Reduction after Single Dose ([4]; 100 mg single dose): 3.7^2 log10 IU/mL
dose-limiting toxicity [5]: no subject met protocol-defined criteria for a dose-limiting toxicity
intensity of adverse events [5]: mild to moderate
AUC0-24 ([6]; 25 mg): 235 ± 79.9 ng·h/mL
Cmax ([6]; 25 mg): 20 ± 6.74 ng/mL
Tmax ([6]; 25 mg): 3.9 (3.0-6.0) hr
AUC(0-t) ([6]; 25 mg, AUC0-24): 142 ± 44.5 ng·h/mL
Cmax ([6]; 25 mg, Cmax): 14 ± 5.19 ng/mL
Tmax ([6]; 25 mg, Tmax): 3.8 h
half-life ([6]; 25 mg, t1/2): 20.8 ± 4.06 h
AUC(0-t) ([6]; 50 mg): 384 ± 204 ng·h/mL
t1/2 ([6]; 50 mg): 19.7 ± 2.0 h
AUC(0-t) ([6]; 50 mg, AUC0-12): 260 ± 102 ng·h/mL
AUC(0-t) ([6]; 50 mg, AUC0-24): 387 ± 115 ng·h/mL
Cmax ([6]; 50 mg, Cmax): 32 ± 8.12 ng/mL
Tmax ([6]; 50 mg, Tmax): 3.4 h
half-life ([6]; 50 mg, t1/2): 23 ± 3.81 h
t1/2 ([6]; 100 mg): 19.3 ± 2.69 h
AUC(0-t) ([6]; 100 mg, AUC0-24): 410 ± 122 ng·h/mL
Cmax ([6]; 100 mg, Cmax): 38 ± 8.6 ng/mL
Tmax ([6]; 100 mg, Tmax): 3.7 h
half-life ([6]; 100 mg, t1/2): 22.9 ± 3.6 h
half-life ([6]; Plasma half-life): ~20 h
Tmax ([6]; Tmax): 3.3 h
half-life ([6]; t1/2): 19.7 ± 5.7 h
Mean (Range) Maximal HCV RNA Reduction from Baseline ([7]; 25 mg QD x 3 days, n = 5): 3.3 (2.9-3.7) log10 IU/mL
Mean (Range) Maximal HCV RNA Reduction from Baseline ([7]; 50 mg BID x 3 days, n = 6): 3.2 (2.7-3.8) log10 IU/mL
Mean (Range) Maximal HCV RNA Reduction from Baseline ([7]; 50 mg QD x 3 days, n = 6): 3.6 (3.3-3.9) log10 IU/mL
Mean (Range) Maximal HCV RNA Reduction from Baseline ([7]; 100 mg QD x 3 days, n = 6): 3.5 (2.6-4.3) log10 IU/mL
Mean (Range) Maximal HCV RNA Reduction from Baseline ([8]; 50 mg BID x 3 days): 3.3 (2.5-4.6) log10 IU/mL
Mean (Range) Maximal HCV RNA Reduction from Baseline ([8]; 100 mg QD x 3 days): 3.4 (3.1-3.8) log10 IU/mL
antiviral activity [9]: potent pan-genotypic antiviral activity
